Data on 33 compounds can be found in patent US20230234942A1, “COMPOUNDS FOR TREATING HUNTINGTON'S DISEASE” (PTC Therapeutics, Inc., priority 2020, published 2023).

One assay deals with Endogenous Huntingtin Protein. The assay is described as follows: Endogenous Huntingtin Protein Assay (ELISA-based MSD electrochemiluminescence). As to conditions: Table 2; MSD plates coated with MW1 (expanded polyglutamine) or MAB2166 capture antibody; "inactive" = result above the detection limit of the assay. The assay is classed as cell-based. The method in brief: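 MSD electrochemiluminescence sandwich ELISA: capture with MW1 (expanded polyQ) or MAB2166 at 1 µg/mL, samples incubated overnight at 4 °C. Detection by rabbit mAb #56565 then SULFO-TAG anti-rabbit antibody, each 0.25 µg/mL for 1 h at room temperature, read in buffer T on SI 6000 imager.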
Compound `Cn1cc2cc(-c3ccc(-c4cnc(N5CCN6CCCC6C5)nn4)c(O)c3)cc(F)c2n1` (stereo not drawn) [Cpd 95, 5-(7-fluoro-2-methyl-2H-indazol-5-yl)-2-[3-(hexahydropyrrolo[1,2-a]pyrazin-2(1H)-yl)-1,2,4-triazin-6-yl]phenol] registered an IC50 of 0.0083 µM. For the compound `CC[C@@H]1CN(c2ncc(-c3ccc(-c4cn[nH]c4F)cc3O)nn2)C[C@H](C)N1` [Cpd 218, 2-{3-[(3R,5S)-3-ethyl-5-methylpiperazin-1-yl]-1,2,4-triazin-6-yl}-5-(5-fluoro-1H-pyrazol-4-yl)phenol], the IC50 stood at 0.0738 µM. Compound `CC(C)[C@H]1CN(c2ncc(-c3ccc(-c4cn[nH]c4F)cc3O)nn2)C[C@@H](C)N1` [Cpd 222, 5-(5-fluoro-1H-pyrazol-4-yl)-2-{3-[(3R,5S)-3-methyl-5-(propan-2-yl)piperazin-1-yl]-1,2,4-triazin-6-yl]phenol] displayed an IC50 of 0.0094 µM. This IC50 is about 7.9-fold lower than that of the compound before. Turning to `Cc1nc2cnc(-c3ccc(-c4cnc(N5C[C@@H](C)N[C@@H](C)C5)nn4)c(O)c3)cn2n1` [Cpd 106, 2-{3-[(3R,5S)-3,5-dimethylpiperazin-1-yl]-1,2,4-triazin-6-yl}-5-(2-methyl[1,2,4]triazolo[1,5-a]pyrazin-6-yl)phenol], the half-inhibitory concentration (IC50) stood at 0.0165 µM. Turning to `CC(C)[C@H]1CN(c2ncc(-c3ccc(-c4cn[nH]c4)cc3O)nn2)CCN1` [Cpd 20, 2-{3-[(3S)-3-(propan-2-yl)piperazin-1-yl]-1,2,4-triazin-6-yl}-5-(1H-pyrazol-4-yl)phenol], it took 0.0171 µM to reach half-maximal inhibition (IC50). In turn, `Cc1nc2c(C)nc(-c3ccc(-c4cnc(N5CCN[C@@H](C(C)C)C5)nn4)c(O)c3)cn2n1` [Cpd 78, 5-(2,8-dimethyl[1,2,4]triazolo[1,5-a]pyrazin-6-yl)-2-{3-[(3S)-3-(propan-2-yl)piperazin-1-yl]-1,2,4-triazin-6-yl}phenol] displayed a half-inhibitory concentration (IC50) of 0.0051 µM. On the same count and under the same terms, the same measure for `COc1csc(-c2ccc(-c3cnc(N4CCN[C@@H](C(C)C)C4)nn3)c(O)c2)n1` [Cpd 200, 5-(4-methoxy-1,3-thiazol-2-yl)-2-{3-[(3S)-3-(propan-2-yl)piperazin-1-yl]-1,2,4-triazin-6-yl}phenol]: 0.0301 µM; for `Cc1cc(-c2ccc(-c3cnc(N4CCNC(C(C)C)C4)nn3)c(O)c2)ncn1` (racemic) [Cpd 149, 5-(6-methylpyrimidin-4-yl)-2-{3-[(3RS)-3-(propan-2-yl)piperazin-1-yl]-1,2,4-triazin-6-yl}phenol]: 0.0907 µM. Still for that read-out and setting: the result for `Cc1ccc(-c2ccc(-c3cnc(N4CCN[C@@H](C(C)C)C4)nn3)c(O)c2)cn1` [Cpd 160, 5-(6-methylpyridin-3-yl)-2-{3-[(3S)-3-(propan-2-yl)piperazin-1-yl]-1,2,4-triazin-6-yl]phenol] reads 0.789 µM; that for `CC(C)[C@H]1CN(c2ncc(-c3c(O)cc(-c4cn[nH]c4F)cc3F)nn2)CCN1` [Cpd 283, 3-fluoro-5-(5-fluoro-1H-pyrazol-4-yl)-2-{3-[(3S)-3-(propan-2-yl)piperazin-1-yl]-1,2,4-triazin-6-yl}phenol], 0.0073 µM; that for `CC(C)N1CCN(c2ncc(-c3ccc(-c4cn[nH]c4)cc3O)nn2)CC1` [Cpd 60, 2-{3-[4-(propan-2-yl)piperazin-1-yl]-1,2,4-triazin-6-yl}-5-(1H-pyrazol-4-yl)phenol], 1.01 µM.

Consider `CC(C)[C@H]1CN(c2ncc(-c3ccc(-c4cc(F)c5nn(C)cc5c4)cc3O)nn2)CCN1` [Cpd 81, 5-(7-fluoro-2-methyl-2H-indazol-5-yl)-2-{3-[(3S)-3-(propan-2-yl)piperazin-1-yl]-1,2,4-triazin-6-yl}phenol], for which the half-maximal inhibitory concentration (IC50) came to 0.0054 µM.

In the case of `C[C@@H]1CN(c2ncc(-c3ccc(-n4nccn4)cc3O)nn2)C[C@H](C2CCC2)N1` [Cpd 237, 2-{3-[(3S,5R)-3-cyclobutyl-5-methylpiperazin-1-yl]-1,2,4-triazin-6-yl}-5-(2H-1,2,3-triazol-2-yl)phenol], the IC50 came to 0.104 µM. Same read-out and setting: the same measure for `CC(C)C1CN(c2ncc(-c3ccc(-c4c[nH]nc4F)cc3O)nn2)CCN1` (stereo not drawn) [Cpd 15, 5-(3-fluoro-1H-pyrazol-4-yl)-2-{3-[3-(propan-2-yl)piperazin-1-yl]-1,2,4-triazin-6-yl]phenol]: 0.0128 µM; for `CC(C)[C@H]1CN(c2ncc(-c3ccc(-c4cn5ccnc5cn4)cc3O)nn2)CCN1` [Cpd 113, 5-(imidazo[1,2-a]pyrazin-6-yl)-2-{3-[(3S)-3-(propan-2-yl)piperazin-1-yl]-1,2,4-triazin-6-yl}phenol]: 0.036 µM; for `CC(C)C1CN(c2ncc(-c3ccc(-c4cnn(C)c4)cc3O)nn2)CCN1` (stereo not drawn) [Cpd 35, 5-(1-methyl-1H-pyrazol-4-yl)-2-{3-[3-(propan-2-yl)piperazin-1-yl]-1,2,4-triazin-6-yl}phenol]: 0.0461 µM. With `CC(C)[C@H]1CN(c2ncc(-c3ccc(-n4nccn4)cc3O)nn2)CCN1` [Cpd 154, 2-{3-[(3S)-3-(propan-2-yl)piperazin-1-yl]-1,2,4-triazin-6-yl}-5-(2H-1,2,3-triazol-2-yl)phenol], the IC50 is 0.0187 µM. This IC50 lies about 2.5-fold lower than the previous one.

`CC(C)[C@H]1CN(c2ncc(-c3ccc(-c4cnc5n4CCC5)cc3O)nn2)CCN1` [Cpd 279, 5-(6,7-dihydro-5H-pyrrolo[1,2-a]imidazol-3-yl)-2-{3-[(3S)-3-(propan-2-yl)piperazin-1-yl]-1,2,4-triazin-6-yl}phenol] returned an IC50 of 0.0052 µM. This IC50 lies about 3.6-fold lower than the previous one.

In turn, `CC(C)[C@H]1CN(c2ncc(-c3ccc(-c4ncc(Cl)s4)cc3O)nn2)CCN1` [Cpd 189, 5-(5-chloro-1,3-thiazol-2-yl)-2-{3-[(3S)-3-(propan-2-yl)piperazin-1-yl]-1,2,4-triazin-6-yl}phenol] displayed an IC50 of 0.461 µM. The compound `CC(C)(O)[C@H]1CN(c2ncc(-c3ccc(-c4c[nH]nc4F)cc3O)nn2)CCN1` [Cpd 25, 5-(3-fluoro-1H-pyrazol-4-yl)-2-{3-[(3R)-3-(2-hydroxypropan-2-yl)piperazin-1-yl]-1,2,4-triazin-6-yl]phenol] yielded an IC50 of 0.0246 µM. With `Oc1cc(-c2c[nH]nc2F)ccc1-c1cnc(N2CCN[C@H](C3CC3)C2)nn1` [Cpd 7, 2-{3-[(3R)-3-cyclopropylpiperazin-1-yl]-1,2,4-triazin-6-yl}-5-(3-fluoro-1H-pyrazol-4-yl)phenol], the IC50 is 0.0069 µM. Compound `Oc1cc(-c2cn[nH]c2)ccc1-c1cnc(N2CCNC3(CC3)C2)nn1` [Cpd 55, 2-[3-(4,7-diazaspiro[2.5]octan-7-yl)-1,2,4-triazin-6-yl]-5-(1H-pyrazol-4-yl)phenol] gave an IC50 of 0.548 µM. The compound `Cc1nc2ccc(-c3ccc(-c4cnc(N5CCN[C@@H](C(C)C)C5)nn4)c(O)c3)cn2n1` [Cpd 85, 5-(2-methyl[1,2,4]triazolo[1,5-a]pyridin-6-yl)-2-{3-[(3S)-3-(propan-2-yl)piperazin-1-yl]-1,2,4-triazin-6-yl}phenol] yielded a concentration for half-maximal inhibition (IC50) of 0.006 µM. The compound “4-fluoro-5-[1-(^2H3)methyl-1H-pyrazol-4-yl]-2-{3-[(3S)-3-(propan-2-yl)piperazin-1-yl]-1,2,4-triazin-6-yl}phenol [Cpd 152]” yielded an IC50 of 0.015 µM.

Regarding `Cc1nc2cnc(-c3ccc(-c4cnc(N5CCN[C@@H](C(C)C)C5)nn4)c(O)c3)cn2n1` [Cpd 91, 5-(2-methyl[1,2,4]triazolo[1,5-a]pyrazin-6-yl)-2-{3-[(3S)-3-(propan-2-yl)piperazin-1-yl]-1,2,4-triazin-6-yl}phenol], inhibition was half-maximal at 0.0073 µM (IC50). The same measure, in the same setting: the same measure for `CC(C)[C@H]1CN(c2ncc(-c3ccc(-c4nccs4)cc3O)nn2)CCN1` [Cpd 185, 2-{3-[(3S)-3-(propan-2-yl)piperazin-1-yl]-1,2,4-triazin-6-yl}-5-(1,3-thiazol-2-yl)phenol]: 0.158 µM; for `Cn1nc2cc(-c3ccc(-c4cnc(N5CCN[C@H](C6(C)CC6)C5)nn4)c(O)c3)cnc2n1` [Cpd 242, 2-{3-[(3R)-3-(1-methylcyclopropyl)piperazin-1-yl]-1,2,4-triazin-6-yl}-5-(2-methyl-2H-[1,2,3]triazolo[4,5-b]pyridin-6-yl)phenol]: 0.106 µM; for `CC[C@H]1CN(c2ncc(-c3ccc(-c4ccnc(OC)c4)cc3O)nn2)C[C@@H](C)N1` (single isomer, unassigned) [Cpd 266, 2-{3-[(3S,5R)-3-ethyl-5-methylpiperazin-1-yl]-1,2,4-triazin-6-yl}-5-(2-methoxypyridin-4-yl)phenol or 2-{3-[(3R,5S)-3-ethyl-5-methylpiperazin-1-yl]-1,2,4-triazin-6-yl}-5-(2-methoxypyridin-4-yl)phenol]: 0.0194 µM. For `CC(C)[C@H]1CN(c2ncc(-c3ccc(-c4nc5cccnc5s4)cc3O)nn2)CCN1` [Cpd 191, 2-{3-[(3S)-3-(propan-2-yl)piperazin-1-yl]-1,2,4-triazin-6-yl}-5-([1,3]thiazolo[5,4-b]pyridin-2-yl)phenol], it took 0.621 µM to reach half-maximal inhibition (IC50). Turning to `C[C@@H]1CN(c2ncc(-c3ccc(-c4cc(C#N)c5nn(C)cc5c4)cc3O)nn2)C[C@H](C)N1` [Cpd 80, 5-(4-{3-[(3R,5S)-3,5-dimethylpiperazin-1-yl]-1,2,4-triazin-6-yl}-3-hydroxyphenyl)-2-methyl-2H-indazole-7-carbonitrile], the IC50 was 0.0053 µM. For the compound `Cc1cn2nc(-c3ccc(-c4cnc(N5C[C@@H](C)N[C@@H](C)C5)nn4)c(O)c3)cc(C)c2n1` [Cpd 69, 5-(2,8-dimethylimidazo[1,2-b]pyridazin-6-yl)-2-{3-[(3R,5S)-3,5-dimethylpiperazin-1-yl]-1,2,4-triazin-6-yl}phenol], inhibition was half-maximal at 0.0036 µM (IC50).

`Cc1ccc2c(cnn2-c2ccc(-c3cnc(N4CCN[C@@H](C(C)C)C4)nn3)c(O)c2)n1` [Cpd 155, 5-(5-methyl-1H-pyrazolo[4,3-b]pyridin-1-yl)-2-{3-[(3S)-3-(propan-2-yl)piperazin-1-yl]-1,2,4-triazin-6-yl}phenol] yielded an IC50 of 0.0195 µM.

The same assay, now with this note: Table 3; selected compounds from WO/2019/191229 A1, same MSD assay.
With `Oc1cc(-c2cn[nH]c2)ccc1-c1cnc(N2CCN3CCC[C@H]3C2)nn1` [WO/2019/191229 A1 Cpd 116, reference compound], the IC50 was found to be 0.0914 µM.

What is called IC50 is the concentration that inhibits the measured activity by half. A higher IC50 goes with a need for much substance.
